In ChEMBL document CHEMBL5104169, “Design and synthesis of mogrol derivatives modified on a ring with anti-inflammatory and anti-proliferative activities” (Bioorg Med Chem Lett, 2022):
Active and inactive are the calls of the source. The calls are words filed in the database; no cut-off is given here.

Assays:
NCI-H460 = test: Antiproliferative activity against human NCI-H460 cells; assay type: functional, cell-based
NCI-H1299 = test: Antiproliferative activity against human NCI-H1299 cells; assay type: functional, cell-based
RAW264.7 [1] = test: Inhibition of LPS-induced NO production in mouse RAW264.7 cells; assay type: functional, cell-based
RAW264.7 [2] = test: Antiinflammatory activity against LPS-induced mouse RAW264.7 cells assessed as decrease in iNOS expression at 2.5 to 10 uM and measured by Western blot analysis; assay type: functional, cell-based; details: dose 2.5-10 µM
RAW264.7 [3] = test: Inhibition of LPS-induced NO production in mouse RAW264.7 cells at 10 uM relative to control; assay type: functional
RAW264.7 [4] = test: Antiinflammatory activity against mouse RAW264.7 cells assessed as decrease in LPS-induced TNF-alpha level at 10 uM measured by ELISA assay; assay type: functional, cell-based
RAW264.7 [5] = test: Antiinflammatory activity against LPS-induced mouse RAW264.7 cells assessed as decrease in phosphorylation levels of IkBalpha at 2.5 to 10 uM and measured by Western blot analysis; assay type: functional, cell-based; details: dose 2.5-10 µM
RAW264.7 [6] = test: Antiinflammatory activity against mouse RAW264.7 cells assessed as decrease in LPS-induced IL-6 level at 10 uM measured by ELISA assay; assay type: functional, cell-based
A549 = test: Antiproliferative activity against human A549 cells; assay type: functional, cell-based
NCI-H1975 = test: Antiproliferative activity against human NCI-H1975 cells; assay type: functional, cell-based
RAW264.7 [7] = test: Antiinflammatory activity against LPS-induced mouse RAW264.7 cells assessed as decrease in phosphorylation levels of p65 at 2.5 to 10 uM and measured by Western blot analysis; assay type: functional, cell-based; details: dose 2.5-10 µM
[8] = Cytotoxicity against mouse RAW264.7 cells assessed as cell viability at 10 uM measured after 24 hrs by CCK-8 assay relative to control; assay type: toxicity, cell-based; details: read-out: Activity
RAW264.7 [9] = test: Cytotoxicity against mouse RAW264.7 cells at 10 uM measured after 24 hrs by CCK-8 assay relative to control; assay type: toxicity, cell-based; details: raw264.7, 24 h
RAW264.7 [10] = test: Inhibition of LPS-induced NO production in mouse RAW264.7 cells at 5 uM relative to control; assay type: functional

Row | SMILES | IC50 (NCI-H460) [µM] | IC50 (NCI-H1299) [µM] | IC50 (RAW264.7 [1]) [µM] | Activity (RAW264.7 [2]) | inhibition at 10 µM (RAW264.7 [3]) [%] | Activity (RAW264.7 [4]) | Activity (RAW264.7 [5]) | Activity (RAW264.7 [6]) | IC50 (A549) [µM] | IC50 (NCI-H1975) [µM] | Activity (RAW264.7 [7]) | viability at 24 h, 10 µM [8] [%] | Activity (RAW264.7 [9]) | inhibition at 5 µM (RAW264.7 [10]) [%]
1 | COc1ccc2[nH]c3c(c2c1)C[C@@H]1C(=CC[C@@H]2[C@@]1(C)C(=O)C[C@]1(C)[C@@H]([C@H](C)CC[C@@H](O)C(C)(C)O)CC[C@@]21C)C3(C)C | > 30 | > 30 | 5.05 | Active | 87.6 | Active | Active | Active | 21.9 | 19 | Active | – | – | –
2 | CC(C)c1ccc2[nH]c3c(c2c1)C[C@@H]1C(=CC[C@@H]2[C@@]1(C)C(=O)C[C@]1(C)[C@@H]([C@H](C)CC[C@@H](O)C(C)(C)O)CC[C@@]21C)C3(C)C | > 30 | > 30 | – | – | 57.4 | – | – | – | 22.2 | > 30 | – | – | – | –
3 | C[C@H](CC[C@@H](O)C(C)(C)O)[C@H]1CC[C@@]2(C)[C@@H]3CC=C4[C@@H](Cc5c([nH]c6ccccc56)C4(C)C)[C@]3(C)[C@H](O)C[C@]12C | 18.3 | 22.4 | – | – | – | – | – | – | 16.4 | 23.2 | – | > 95 | – | –
4 | C[C@H](CC[C@@H](O)C(C)(C)O)[C@H]1CC[C@@]2(C)[C@@H]3CC=C4[C@@H](C/C(=C\c5ccccc5)C(=O)C4(C)C)[C@]3(C)[C@H](O)C[C@]12C | 16 | 12 | – | – | – | – | – | – | 10.7 | 13.6 | – | – | Toxic | –
5 | C[C@H](CC[C@@H](O)C(C)(C)O)[C@H]1CC[C@@]2(C)[C@@H]3CC=C4[C@@H](Cc5cc6ccncc6nc5C4(C)C)[C@]3(C)[C@H](O)C[C@]12C | 23.4 | > 30 | – | – | – | – | – | – | > 30 | > 30 | – | – | Toxic | –
6 | Cc1ccc(/C=C2\C[C@@H]3C(=CC[C@@H]4[C@@]3(C)C(=O)C[C@]3(C)[C@@H]([C@H](C)CC[C@@H](O)C(C)(C)O)CC[C@@]43C)C(C)(C)C2=O)cc1 | 24.3 | > 30 | – | – | – | – | – | – | 22.1 | 19.1 | – | – | Toxic | –
7 | C[C@H](CC[C@@H](O)C(C)(C)O)[C@H]1CC[C@@]2(C)[C@@H]3CC=C4[C@@H](C/C(=C\c5cccnc5)C(=O)C4(C)C)[C@]3(C)C(=O)C[C@]12C | 16.5 | 16.4 | – | – | – | – | – | – | 12.6 | 12.7 | – | – | Toxic | –
8 | C[C@H](CC[C@@H](O)C(C)(C)O)[C@H]1CC[C@@]2(C)[C@@H]3CC=C4[C@@H](Cc5c([nH]c6ccccc56)C4(C)C)[C@]3(C)C(=O)C[C@]12C | > 30 | > 30 | – | – | 78.2 | – | – | – | 27.9 | > 30 | – | – | – | –
9 | C[C@H](CC[C@@H](O)C(C)(C)O)[C@H]1CC[C@@]2(C)[C@@H]3CC=C4[C@@H](C/C(=C\c5ccccc5)C(=O)C4(C)C)[C@]3(C)C(=O)C[C@]12C | 32.5 | > 30 | – | – | – | – | – | – | 16.1 | > 30 | – | – | Toxic | –
10 | C[C@H](CC[C@@H](O)C(C)(C)O)[C@H]1CC[C@@]2(C)[C@@H]3CC=C4[C@@H](C/C(=C\c5cccnc5)C(=O)C4(C)C)[C@]3(C)[C@H](O)C[C@]12C | 11.1 | 14.6 | – | – | – | – | – | – | 11.1 | 13.4 | – | – | Toxic | –
11 | C[C@H](CC[C@@H](O)C(C)(C)O)[C@H]1CC[C@@]2(C)[C@@H]3CC=C4[C@@H](Cc5cc6ccccc6nc5C4(C)C)[C@]3(C)[C@H](O)C[C@]12C | 18.9 | 20 | – | – | – | – | – | – | 17.2 | 18.7 | – | – | Toxic | –
12 | Cc1ccc2[nH]c3c(c2c1)C[C@@H]1C(=CC[C@@H]2[C@@]1(C)C(=O)C[C@]1(C)[C@@H]([C@H](C)CC[C@@H](O)C(C)(C)O)CC[C@@]21C)C3(C)C | > 30 | 18.7 | – | – | 56.6 | – | – | – | 16.5 | > 30 | – | – | – | –
13 | C[C@H](CC[C@@H](O)C(C)(C)O)[C@H]1CC[C@@]2(C)[C@@H]3CC=C4[C@@H](Cc5cc6cc(F)ccc6nc5C4(C)C)[C@]3(C)[C@H](O)C[C@]12C | 16.3 | 11.7 | – | – | – | – | – | – | 7.55 | 14.7 | – | – | Toxic | –
14 | O=c1[nH]cc(F)c(=O)[nH]1 [FLUOROURACIL] | – | 3.53 | – | – | – | – | – | – | 1.65 | 1.98 | – | – | – | –
15 | C[C@H](CC[C@@H](O)C(C)(C)O)[C@H]1CC[C@@]2(C)[C@@H]3CC=C4[C@@H](C/C(=C\c5ccncc5)C(=O)C4(C)C)[C@]3(C)[C@H](O)C[C@]12C | 15 | 13.3 | – | – | – | – | – | – | 11.6 | 12.7 | – | – | Toxic | –
16 | C[C@H](CC[C@@H](O)C(C)(C)O)[C@H]1CC[C@@]2(C)[C@@H]3CC=C4[C@@H](Cc5cc6cc(Br)ccc6nc5C4(C)C)[C@]3(C)[C@H](O)C[C@]12C | > 30 | 27 | – | – | – | – | – | – | 8.99 | 25.7 | – | – | Toxic | –
17 | Cc1ccc(/C=C2\C[C@@H]3C(=CC[C@@H]4[C@@]3(C)[C@H](O)C[C@]3(C)[C@@H]([C@H](C)CC[C@@H](O)C(C)(C)O)CC[C@@]43C)C(C)(C)C2=O)cc1 | 13.7 | > 30 | – | – | – | – | – | – | 9.91 | 15.1 | – | – | Toxic | –
18 | C[C@H](CC[C@@H](O)C(C)(C)O)[C@H]1CC[C@@]2(C)[C@@H]3CC=C4[C@@H](Cc5c([nH]c6ccc(Cl)cc56)C4(C)C)[C@]3(C)[C@H](O)C[C@]12C | 23.1 | 19.1 | – | – | – | – | – | – | > 30 | 18.5 | – | > 95 | – | –
19 | C=C1C(=O)O[C@@H]2C3O[C@]3(C)CC/C=C(\C)CC[C@@H]12 (stereo not given in full) | – | – | – | – | – | – | – | – | – | – | – | – | – | 91.9
20 | C[C@H](CC[C@@H](O)C(C)(C)O)[C@H]1CC[C@@]2(C)[C@@H]3CC=C4[C@@H](Cc5cc6cc(Cl)ccc6nc5C4(C)C)[C@]3(C)[C@H](O)C[C@]12C | 19 | 13.2 | – | – | – | – | – | – | 8.22 | 16.4 | – | – | Toxic | –
21 | C[C@H](CC[C@@H](O)C(C)(C)O)[C@H]1CC[C@@]2(C)[C@@H]3CC=C4[C@@H](C/C(=C\c5ccc(Cl)cc5)C(=O)C4(C)C)[C@]3(C)[C@H](O)C[C@]12C | 9.94 | > 30 | – | – | – | – | – | – | 8.26 | 13.6 | – | – | Toxic | –
22 | Cc1ccc2[nH]c3c(c2c1)C[C@@H]1C(=CC[C@@H]2[C@@]1(C)[C@H](O)C[C@]1(C)[C@@H]([C@H](C)CC[C@@H](O)C(C)(C)O)CC[C@@]21C)C3(C)C | 31.5 | > 30 | – | – | 45.1 | – | – | – | 22.6 | > 30 | – | – | – | –
23 | CC(C)c1ccc2[nH]c3c(c2c1)C[C@@H]1C(=CC[C@@H]2[C@@]1(C)[C@H](O)C[C@]1(C)[C@@H]([C@H](C)CC[C@@H](O)C(C)(C)O)CC[C@@]21C)C3(C)C | 25 | > 30 | – | – | – | – | – | – | 25.4 | > 30 | – | > 95 | – | –
24 | C[C@H](CC[C@@H](O)C(C)(C)O)[C@H]1CC[C@@]2(C)[C@@H]3CC=C4[C@@H](CC[C@H](O)C4(C)C)[C@]3(C)[C@H](O)C[C@]12C [MOGROL] | > 100 | > 100 | – | – | 17.4 | – | – | – | 28.6 | 87.1 | – | – | – | –
